In one data set the test system is liver cells. Briefly: Liver cell proliferation under carbon tetrachloride treatment (2H2O labeling). Format: in vivo, Swiss Webster mice. The settings on record: IP injections over 7 days, increasing doses, concurrent 2H2O. The method, then: FIG. 13 depicts in vivo dose response of liver cell proliferation over 7 days of carbon tetrachloride treatment. Swiss Webster mice were given IP injections of CCl4 over 7 days concurrent with ^2H2O.
Mice are given CCl4 i.p. twice weekly for up to 4 weeks, and continuous oral ^2H2O is given throughout, following an i.p. bolus of ^2H2O. Livers are perfused in situ with saline to minimize blood cell contamination. Livers are homogenized and DNA from 5-mg aliquots is analyzed for ^2H incorporation by gas chromatography/mass spectrometry analysis, after isolation and hydrolysis of genomic DNA, as described in Example 1, supra. Livers are collected 4 days after the last dose of CCl4. The cell proliferation rate can then be calculated from the enrichment in the DNA of the target cell compared to measured body water enrichment or to a reference cell type which is fully replaced.
DNA is extracted from a liver sample, either by biopsy or liver homogenate. Liver cell proliferation can be determined on a sample a small as 2 mg (400,000 cells). The use of total liver, rather than isolated hepatocytes, allows for efficient scale-up and the sample processing can be adapted to a 96-well automated system for extremely high throughput. Total liver cell proliferation will be compared to the measured proliferation of isolated hepatocytes, and non-parenchymal cells for validation. […]

Another data set has as its system liver collagen synthesis. Briefly: Liver collagen synthesis in CCl4-induced liver fibrosis. Particulars: fibrotic agent alone.
Data set [1] can be described thus: Tolerability of maintained 2H2O body water enrichment. Particulars: 1-10% of total body water labeled, weeks or months; >100 human subjects. Format: in vivo, humans and experimental animals. An excerpt:
Relatively high body water enrichments of ^2H2O (e.g., 1-10% of the total body water is labeled) may be achieved relatively inexpensively using the techniques of the invention. […] This finding in a large number of human subjects (>100 people) is contrary to previous concerns about vestibular toxicities at high doses of ^2H2O. The Applicant has discovered that as long as rapid changes in body water enrichment are prevented (e.g., by initial administration in small, divided doses), high body water enrichments of ^2H2O can be maintained with no toxicities. For example, the low expense of commercially available ^2H2O allows long-term maintenance of enrichments in the 1-5% range at relatively low expense (e.g., calculations reveal a lower cost for 2 months labeling at 2% ^2H2O enrichment, and thus 7-8% enrichment in the alanine precursor pool, than for 12 hours labeling of ^2H-leucine at 10% free leucine enrichment, and thus 7-8% enrichment in leucine precursor pool for that period).

Data set [2] concerns endothelial cells from xenograft tumors. The experiment in a line: Tumor endothelial cell proliferation in xenograft tumors (angiogenesis). Format: in vivo, Balb/c Nu-/Nu- mice. The settings on record: two weeks drug treatment; vs vehicle (saline)/untreated group. The method, then:
FIG. 18 depicts proliferation of endothelial cells from xenograft tumors in mice treated with an anti-angiogenic drug (Avastin) or a vehicle (saline). Endothelial cell proliferation is suppressed in animals treated with the drug.
The kinetics of angiogenesis are measured in liver and tumor xenografts. Balb/c Nu−/Nu− mice are transplanted with human breast tumor cells. After labeling with ^2H2O, individual animals are sacrificed, and both tumor tissue and liver tissue are harvested from the same animal. The tissue is then digested with collagenase (1 mg/mL) into a single cell suspension. Endothelial cells are enriched by Percoll gradient centrifugation, followed by FACS (sorting on isolection and CD31 positive cells). The proliferation rate of tumor endothelial cells, as well as liver endothelial cells is then measured by purifying, processing, derivatizing, and analyzing the DNA from the isolated endothelial cells, as described in example 2, supra.

The next data set relates to microglia. The experiment in a line: Microglial proliferation assay of neuroinflammation (2H2O labeling, FACS-isolated microglia). In kind it is in vivo, mice. Particulars: LPS i.p. (1 and 4 mg/kg every other day in FIG. 14); vs control; p<0.05 / p<0.01 ANOVA/Tukey. The method, then: FIG. 14 depicts microglial response to the neuroinflammatory toxin lipopolysacharride (LPS). LPS is administered every other day to mice intraperitoneally at the two doses indicated (1 and 4 mg/kg body weight). ^2H2O was administered concurrently. Some animals were harvested at each of the indicated time points, and microglia were isolated and analyzed for deuterium incorporation. […] Error bars indicate standard deviation.
FIG. 15 depicts the effects of two anti-inflammatory chemotherapeutic agents (dexamethasone and minocycline) on microglial proliferation. Mice were given ^2H2O and either intraperitoneal lipopolysaccharide (LPS) to induce neuroinflammation, or a vehicle (control). Mice given LPS were treated with either a vehicle or dexamethasone or minocycline. Microglia were then isolated and analyzed for deuterium incorporation as described herein.
Mice are labeled with ^2H2O for an appropriate period. Mice are anesthetized and perfused with 10 mL ice cold PBS (trans-cardiac perfusion). Brains are immediately harvested and placed on ice in cold PBS. […]
The resulting cells are stained with the macrophage specific markers F4/80 and CD11b, fixed in 4% paraformaldehyde (PFA), and then isolated by FACS. […] DNA is extracted from sorted cells, hydrolyzed, derivatized, and analyzed by GC/MS as described in Example 2, supra. […]

The next data set has as its system cerebral cortical tissue. The experiment in a line: Cerebral cortical tissue/cell turnover (2H2O labeling of cortical DNA). Particulars: high dose of LPS.

“Also recorded” adds a separate entry of the source.

For `ClC(Cl)(Cl)Cl` [CCl4, carbon tetrachloride], the “total liver cell turnover (proliferation of liver cells)” value with liver cells is reported as “increased proliferation of liver cells”. Besides, in the data set with liver collagen synthesis, the “collagen synthesis in mouse liver” value was “increases collagen synthesis”. On to `[2H]O[2H]` [^2H2O], for which, in data set [1], the “toxicity of maintained body water enrichment” value is listed as “without any evidence of toxicity”. In the case of “Avastin: Avastin (Genentech, CA), a known anti-angiogenesis drug”, the “tumor endothelial cell proliferation rate” value in data set [2] is recorded as “suppressed; also recorded: significantly lower proliferation rate”. In the case of lipopolysaccharide [LPS], in the data set with microglia, the microglial proliferation result is “increased proliferative response; also recorded: increased proliferation; also recorded: statistically significant and dose-dependent increase”. The cortical tissue turnover result in the data set with cerebral cortical tissue is reported as “affected cortical tissue turnover; also recorded: increased cortical cell turnover”.

Values taken from patent US10466253B2, “Molecular flux rates through critical pathways measured by stable isotope labeling in vivo, as biomarkers of drug action and disease activity” (The Regents of the University of California, priority 2004, dated 2019).
